We go through two compounds from publication PMC9856072, “Complexed Crystal Structure of the Dihydroorotase Domain of Human CAD Protein with the Anticancer Drug 5-Fluorouracil” (Biomolecules, 2023).

Holding throughout (format): binding
Experiment [1] addresses T1, dihydroorotase domain of human CAD (huDHOase) (Homo sapiens, UniProt P27708).
T1 construct: residues 1456–1846 in human CAD protein, C-terminal His tag
T1 sequence (P27708 1456-1846): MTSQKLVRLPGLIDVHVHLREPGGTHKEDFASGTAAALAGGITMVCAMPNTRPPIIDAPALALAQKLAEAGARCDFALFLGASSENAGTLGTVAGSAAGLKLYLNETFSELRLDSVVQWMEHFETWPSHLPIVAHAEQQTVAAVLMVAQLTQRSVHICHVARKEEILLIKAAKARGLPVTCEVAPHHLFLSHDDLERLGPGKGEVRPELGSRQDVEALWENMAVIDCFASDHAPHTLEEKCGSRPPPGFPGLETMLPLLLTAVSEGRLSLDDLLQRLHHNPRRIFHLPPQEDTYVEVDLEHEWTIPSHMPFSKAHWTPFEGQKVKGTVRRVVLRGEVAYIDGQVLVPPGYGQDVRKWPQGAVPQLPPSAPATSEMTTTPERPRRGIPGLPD
The experiment in a line: co-crystal structure ([…] Å) and intrinsic fluorescence quenching.

Experiment [2] deals with T2, dihydroorotase domain of human CAD (huDHOase) (Homo sapiens, UniProt P27708, T1562A).
T2 construct: residues 1456–1846 in human CAD protein, C-terminal His tag
T2 sequence (P27708 1456-1846 T1562A): T1 sequence (P27708 1456-1846) with T107A
The experiment in a line: intrinsic fluorescence quenching titration.

Experiment [3] addresses T3, dihydroorotase domain of human CAD (huDHOase) (Homo sapiens, UniProt P27708, R1475A).
T3 construct: residues 1456–1846 in human CAD protein, C-terminal His tag
T3 sequence (P27708 1456-1846 R1475A): T1 sequence (P27708 1456-1846) with R20A
The experiment in a line: intrinsic fluorescence quenching titration.

Experiment [4] concerns the target T1, dihydroorotase domain of human CAD (huDHOase). The experiment in a line: co-crystal structure ([…] Å).

Substitutions are numbered along the chain they refer to.

Consider `O=c1[nH]cc(F)c(=O)[nH]1` [5-FU, 5-fluorouracil], for which the figures for the Kd in experiment [1], in experiment [2] and in experiment [3] were 91.2 ± 1.7 µM, 146 ± 2.1 µM and 161.5 ± 1.6 µM, respectively.

Consider `O=C(O)CC(O)C(=O)O` (stereo not shown) [malate], for which the “co-crystal structure (1.64 Å)” value in experiment [4] is listed as “This complexed structure revealed that malate is bound at the active site of huDHOase”.
